Experimental findings from patent US4199500A, “Peptides related to somatostatin” (Eli Lilly and Company, priority 1978, dated 1980) are described below.

Positions of bridges follow the written chain, without caps; N, C: chain ends. Non-standard residues stand in square brackets, D forms with d. Residues, ends and D or L forms follow the SMILES beside them.

The subject of test [1] is growth hormone (GH) secretion. The test can be described thus: Growth Hormone Inhibition In Rats (pentobarbital-stimulated GH secretion, serum GH by radioimmunoassay). The test is classed as in vivo. As to conditions: male rats; for % Inhibition of GH release (as compared to control): compared to saline control; for Serum Growth Hormone Conc. Mean ± SEM: sodium pentobarbital 4 mg/rat I.P., 20 minutes after dosing. Here is the method:
A. Growth Hormone Inhibition In Rats:
This test is a modification of the method of P. Brazeau et al. Endocrinology, 94, 184 (1974). Male rats (weighing 100-110 g.) are divided into three groups of eight rats each. Each rat is administered sodium pentobarbital at a dose of 4 mg/rat (I.P.) to stimulate growth hormone (GH) secretion. Simultaneously, one group of rats receives the test compound (S.C.); the second group receives somatostatin (S.C.); and the third group (control) receives saline (S.C.). Twenty-minutes later, the animals are decapitated and blood samples are collected. The serum concentration of growth hormone (GH) is determined by radioimmunoassay. The mean GH concentration (± standard error of the mean) is calculated for each group. The percent inhibition of GH release (as compared to saline controls) is then calculated for the test compound and for somatostatin. When tested as above-described, the peptide of Example 4 (D-Ala^2, Ala^5, D-Trp^8, Val^10, D-Phe^11 -Somatostatin) representative of the peptides of Formula III, gave the results set forth below in Table I: […]

A further test relates to serum glucagon. The test can be described thus: Glucagon Inhibition In Dogs (I.V. infusion, L-alanine stimulation, serum glucagon by radioimmunoassay). The test is classed as in vivo, dog. Here is the method: (§1) B. Insulin and Glucagon Inhibition In Dogs:
(§2) A normal dog is fasted overnight. An intravenous (I.V.) infusion of the test compound (dissolved in saline) is begun. Thirty minutes thereafter an additional infusion of L-alanine (dissolved in saline) is begun and is continued for a total of 15 minutes so that a total dose of about 1 mmole of L-alanine per kg. body weight is given. Infusion of the test compound is continued for an additional 15 minute period.
(§3) Blood samples are taken periodically before (at -20, -10 and -1 minutes) and after (5, 10, 15, 30, 35, 40, 45, 50, 60, 90, 120 and 150 minutes) the start of the infusion of the test compound. The serum insulin and serum glucagon concentrations in the blood are determined by radioimmunoassay. A plot is made of the glucagon and insulin concentrations versus time. The plot obtained from the test compound is compared to plots obtained from somatostatin and saline (controls) in similar experiments.
(§4) Infusion of L-alanine (in the absence of somatostatin or active test compound) causes an abrupt increase in serum insulin and glucagon concentrations. The concentrations return to basal levels after the L-alanine infusion is terminated.

The test system of a further test is serum insulin. Kind of test: Insulin Inhibition In Dogs (I.V. infusion, L-alanine stimulation, serum insulin by radioimmunoassay). The test is classed as in vivo, dog. Here is the method:
as §1, §2, §3, §4

[2] abbreviates: dog, in the presence of L-alanine.
Where [3] appears, read: dog, infusion alone (no L-alanine).
Where [4] appears, read: normal fasted dog, I.V. infusion 0.237 μg/Kg./min, L-alanine infusion.

Turning to `C[C@H](N)C(=O)NCC(=O)N[C@H]1CSSC[C@@H](C(=O)O)NC(=O)[C@H](CO)NC(=O)[C@H]([C@@H](C)O)NC(=O)[C@H](Cc2ccccc2)NC(=O)[C@H]([C@@H](C)O)NC(=O)[C@H](CCCCN)NC(=O)[C@H](Cc2c[nH]c3ccccc23)NC(=O)[C@H](Cc2ccccc2)NC(=O)[C@H](Cc2ccccc2)NC(=O)[C@H](CC(N)=O)NC(=O)[C@H](CCCCN)NC1=O` [Somatostatin], in test [1] (dose 2 mg/kg S.C.), the “% Inhibition of GH release (as compared to control)” value (from here on “% Inhibition of GH release”) was determined as 63% and the Serum Growth Hormone Conc. Mean ± SEM came out at 105 ± 69 ng/mL. In test [1] (dose 50 mg/kg S.C.), the “% Inhibition of GH release” value is recorded as 93%. In addition, in the test with serum glucagon (setting [2]), the “effect on increase in glucagon concentration induced by L-alanine” value is on record as “inhibits the increase”. Further, in the test with serum glucagon (setting [3]), the “effect on basal serum concentration of glucagon” value is recorded as “causes a decrease”. Besides, the “effect on increase in insulin concentration induced by L-alanine” value with serum insulin (setting [2]) is “inhibits the increase”. Also, the “effect on basal serum concentration of insulin” value in the test on serum insulin (setting [3]) was “causes a decrease”.

For the compound `CC(C)[C@@H]1NC(=O)[C@H](CCCCN)NC(=O)[C@@H](Cc2c[nH]c3ccccc23)NC(=O)[C@H](Cc2ccccc2)NC(=O)[C@H](Cc2ccccc2)NC(=O)[C@H](C)NC(=O)[C@H](CCCCN)NC(=O)[C@@H](NC(=O)[C@@H](C)NC(=O)[C@H](C)N)CSSC[C@@H](C(=O)O)NC(=O)[C@H](CO)NC(=O)[C@H]([C@@H](C)O)NC(=O)[C@@H](Cc2ccccc2)NC1=O` [Example 4, L-Alanyl-D-alanyl-L-cysteinyl-L-lysyl-L-alanyl-L-phenylalanyl-L-phenylalanyl-D-tryptophyl-L-lysyl-L-valyl-D-phenyl-alanyl-L-threonyl-L-seryl-L-cysteine cyclic (3->14) disulfide] (H-A[dA]CKAFF[dW]KV[dF]TSC-OH; disulfide 3-14), the “% Inhibition of GH release” value in test [1] (dose 2 mg/kg S.C.) turned out to be 7.8%; in test [1] (dose 50 mg/kg S.C.), 66%. The Serum Growth Hormone Conc. Mean ± SEM in test [1] (dose 2 mg/kg S.C.) was determined as 61 ± 24 ng/mL; in test [1] (dose 50 mg/kg S.C.), 97 ± 39 ng/mL. Besides, in the test on serum glucagon (setting [4]), the “inhibition of glucagon concentration” value is listed as “no significant inhibition”. In addition, the “inhibition of insulin concentration” value in the test with serum insulin (setting [4]) is “no significant inhibition”.
